Assay results reported in patent publication US6525001B1, “Substituted pyrimidine and pyridine herbicides” (Mid-American Commercialization Corporation, priority 1997, dated 2003).

Legend:
Assay type in all cases: in vivo
Parameters in all cases: key: 0 is no effect; 10 is complete control
[1] = tested on: smallflower flatsedge (Cyperus difformis); experiment: Test B flood test
Method in brief: (§1)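 Read-out is a visual response score from 0 (no effect) to 10 (complete control), assigned by comparison with untreated controls. Treatment was applied at the 2-leaf stage, and plants stayed in the greenhouse for twelve to sixteen days before scoring.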

rice (Oryza sativa) = experiment: Test B flood test
Method in brief: as §1

[2] = tested on: duck salad (Heteranthera limosa); experiment: Test B flood test
Method in brief: as §1

[3] = tested on: bamyardgrass (Echinochloa crus-galli); experiment: Test B flood test
Method in brief: as §1

[4] = tested on: bedstraw (Galium aparine); experiment: Test B pre-/postemergence; settings: for Bedstraw plant response rating: Preemergence
Excerpt: (§2) Seeds of bedstraw (Galium aparine), blackgrass (Alopecurus myosuroides), broadleaf signalgrass (Brachiaria decumbens), cocklebur (Xanthium strumarium), corn (Zea mays), crabgrass (Digitaria sanguinalis), giant foxtail (Setaria faberii), lambsquarters (Chenopodium album), momingglory (Ipomoea hederacea), pigweed (Amaranthus retroflexus), rape (Brassica napus), soybean (Glycine max), sugar beet (Beta vulgaris), velvetleaf (Abutilon theophrasti), wheat (Triticum aestivum), wild oat (Avena fatua) and purple nutsedge (Cyperus rotundus) tubers were planted and treated preemergence with test chemicals formulated in a non-phytotoxic solvent mixture which included a surfactant.
(§3) At the same time, these crop and weed species were also treated with postemergence applications of test chemicals formulated in the same manner. Plants ranged in height from 2 to 18 cm (1- to 4-leaf stage) for postemergence treatments. Plant species in the flood test consisted of rice (Oryza sativa), smallflower flatsedge (Cyperus difformis), duck salad (Heteranthera limosa) and bamyardgrass (Echinochloa crus-galli) grown to the 2-leaf stage for testing. Treated plants and controls were maintained in a greenhouse for twelve to sixteen days, after which all species were compared to controls and visually evaluated. Plant response ratings, summarized in Table B, are based on a scale of 0 to 10 where 0 is no effect and 10 is complete control. A dash (−) response means no test result.

[5] = tested on: cocklebur (Xanthium strumarium); experiment: Test B pre-/postemergence; settings: for Cocklebur plant response rating: Preemergence
Excerpt: as §2, §3

[6] = tested on: giant foxtail (Setaria faberii); experiment: Test B pre-/postemergence
Excerpt: as §2, §3

[7] = tested on: velvetleaf (Abutilon theophrasti); experiment: Test B pre-/postemergence
Excerpt: as §2, §3

[8] = tested on: momingglory (Ipomoea hederacea); experiment: Test B pre-/postemergence
Excerpt: as §2, §3

soybean (Glycine max) = experiment: Test B pre-/postemergence
Excerpt: as §2, §3

[9] = tested on: purple nutsedge (Cyperus rotundus); experiment: Test B pre-/postemergence
Excerpt: as §2, §3

[10] = tested on: blackgrass (Alopecurus myosuroides); experiment: Test B pre-/postemergence; settings: for Blackgrass plant response rating: Preemergence
Excerpt: as §2, §3

[11] = tested on: crabgrass (Digitaria sanguinalis); experiment: Test B pre-/postemergence; settings: for Crabgrass plant response rating: Preemergence
Excerpt: as §2, §3

[12] = tested on: sugar beet (Beta vulgaris); experiment: Test B pre-/postemergence
Excerpt: as §2, §3

[13] = tested on: wheat (Triticum aestivum); experiment: Test B pre-/postemergence
Excerpt: as §2, §3

[14] = tested on: pigweed (Amaranthus retroflexus); experiment: Test B pre-/postemergence
Excerpt: as §2, §3

[15] = tested on: broadleaf signalgrass (Brachiaria decumbens); experiment: Test B pre-/postemergence; settings: for B. signalgrass plant response rating: Preemergence
Excerpt: as §2, §3

corn (Zea mays) = experiment: Test B pre-/postemergence; settings: for Corn plant response rating: Preemergence
Excerpt: as §2, §3

rape (Brassica napus) = experiment: Test B pre-/postemergence
Excerpt: as §2, §3

wild oat (Avena fatua) = experiment: Test B pre-/postemergence
Excerpt: as §2, §3

[16] = Rate 62 g/ha, Postemergence (flood test)
[17] = Rate 125 g/ha, Postemergence section (flood test species)
[18] = Rate 250 g/ha, Postemergence (flood test species)
[19] = Rate 125 g/ha, Postemergence, flood test
[20] = Rate 250 g/ha, Postemergence (so in the source)

Cc1cnc(-c2ccccc2F)nc1Cc1cccc(C(F)(F)F)c1 [Compound 26]
1: S. Flatsedge plant response rating [1, 17] | Plant response rating, Bedstraw ([4]; Rate 62 g/ha, Postemergence) | Plant response rating, Giant foxtail ([6]; Rate 62 g/ha, Postemergence) | Giant foxtail plant response rating ([6]; Rate 125 g/ha, Postemergence) | Giant foxtail plant response rating ([6]; Rate 125 g/ha, Preemergence) | Plant response rating, Giant foxtail ([6]; Rate 250 g/ha, Postemergence) | Plant response rating, Giant foxtail [6, 20] | Plant response rating, Velvetleaf ([7]; Rate 62 g/ha, Postemergence) | Velvetleaf plant response rating ([7]; Rate 125 g/ha, Postemergence) | Plant response rating, Blackgrass ([10]; Rate 125 g/ha, Postemergence) | Plant response rating, Blackgrass ([10]; Rate 250 g/ha, Postemergence) | Plant response rating, Crabgrass ([11]; Rate 62 g/ha, Postemergence) | Plant response rating, Crabgrass ([11]; Rate 125 g/ha, Postemergence) | Plant response rating, Crabgrass ([11]; Rate 250 g/ha, Postemergence) | Plant response rating, Crabgrass [11, 20] | Plant response rating, B. signalgrass ([15]; Rate 62 g/ha, Postemergence) | Plant response rating, B. signalgrass ([15]; Rate 125 g/ha, Postemergence) | Plant response rating, B. signalgrass ([15]; Rate 250 g/ha, Postemergence as printed in head r139 (second section for compounds 26-50)) | Plant response rating, Corn (corn (Zea mays); Rate 62 g/ha, Postemergence) | Plant response rating, Corn (corn (Zea mays); Rate 125 g/ha, Postemergence) | Plant response rating, Corn (corn (Zea mays); Rate 250 g/ha, Postemergence)
4: Plant response rating, Redroot pigweed [14, 20]
0: Plant response rating, S. Flatsedge [1, 16] | Plant response rating, Rice (rice (Oryza sativa); [16]) | Rice plant response rating (rice (Oryza sativa); [17]) | Plant response rating, Rice (rice (Oryza sativa); [18]) | Plant response rating, Ducksalad [2, 16] | Plant response rating, Ducksalad [2, 19] | Plant response rating, Ducksalad [2, 18] | Plant response rating, Barnyardgrass [3, 16] | Plant response rating, Barnyardgrass [3, 19] | Bedstraw plant response rating ([4]; Rate 62 g/ha) | Bedstraw plant response rating ([4]; Rate 125 g/ha) | Plant response rating, Bedstraw [4, 20] | Cocklebur plant response rating ([5]; Rate 62 g/ha) | Cocklebur plant response rating ([5]; Rate 125 g/ha) | Plant response rating, Cocklebur [5, 20] | Giant foxtail plant response rating ([6]; Rate 62 g/ha, Preemergence) | Velvetleaf plant response rating ([7]; Rate 62 g/ha, Preemergence) | Plant response rating, Velvetleaf ([7]; Rate 125 g/ha, Preemergence) | Plant response rating, Velvetleaf [7, 20] | Morningglory plant response rating ([8]; Rate 62 g/ha, Preemergence) | Morningglory plant response rating ([8]; Rate 125 g/ha, Preemergence) | Plant response rating, Morningglory [8, 20] | Soybean plant response rating (soybean (Glycine max); Rate 62 g/ha, Preemergence) | Plant response rating, Soybean (soybean (Glycine max); Rate 125 g/ha, Preemergence) | Plant response rating, Soybean (soybean (Glycine max); [20]) | Plant response rating, Nutsedge ([9]; Rate 62 g/ha, Postemergence) | Nutsedge plant response rating ([9]; Rate 62 g/ha, Preemergence) | Nutsedge plant response rating ([9]; Rate 125 g/ha, Postemergence) | Nutsedge plant response rating ([9]; Rate 125 g/ha, Preemergence) | Plant response rating, Blackgrass ([10]; Rate 62 g/ha, Postemergence) | Blackgrass plant response rating ([10]; Rate 62 g/ha) | Blackgrass plant response rating ([10]; Rate 125 g/ha) | Plant response rating, Blackgrass [10, 20] | Crabgrass plant response rating ([11]; Rate 62 g/ha) | Crabgrass plant response rating ([11]; Rate 125 g/ha) | Sugarbeets plant response rating ([12]; Rate 62 g/ha, Preemergence) | Plant response rating, Sugarbeets ([12]; Rate 125 g/ha, Preemergence) | Plant response rating, Sugarbeets [12, 20] | Plant response rating, Wheat ([13]; Rate 62 g/ha, Postemergence) | Wheat plant response rating ([13]; Rate 62 g/ha, Preemergence) | Wheat plant response rating ([13]; Rate 125 g/ha, Postemergence) | Plant response rating, Wheat ([13]; Rate 125 g/ha, Preemergence) | Plant response rating, Wheat ([13]; Rate 250 g/ha, Postemergence) | Plant response rating, Wheat [13, 20] | Redroot pigweed plant response rating ([14]; Rate 62 g/ha, Preemergence) | Redroot pigweed plant response rating ([14]; Rate 125 g/ha, Preemergence) | B. signalgrass plant response rating ([15]; Rate 62 g/ha) | B. signalgrass plant response rating ([15]; Rate 125 g/ha) | Corn plant response rating (corn (Zea mays); Rate 62 g/ha) | Corn plant response rating (corn (Zea mays); Rate 125 g/ha) | Plant response rating, Corn (corn (Zea mays); [20]) | Rape plant response rating (rape (Brassica napus); Rate 62 g/ha, Preemergence) | Rape plant response rating (rape (Brassica napus); Rate 125 g/ha, Preemergence) | Plant response rating, Rape (rape (Brassica napus); [20]) | Plant response rating, Wild oats (wild oat (Avena fatua); Rate 62 g/ha, Postemergence) | Wild oats plant response rating (wild oat (Avena fatua); Rate 62 g/ha, Preemergence) | Wild oats plant response rating (wild oat (Avena fatua); Rate 125 g/ha, Postemergence) | Plant response rating, Wild oats (wild oat (Avena fatua); Rate 125 g/ha, Preemergence) | Plant response rating, Wild oats (wild oat (Avena fatua); Rate 250 g/ha, Postemergence) | Plant response rating, Wild oats (wild oat (Avena fatua); [20])
3: Plant response rating, Bedstraw ([4]; Rate 125 g/ha, Postemergence) | Plant response rating, Cocklebur ([5]; Rate 250 g/ha, Postemergence) | Plant response rating, Morningglory ([8]; Rate 62 g/ha, Postemergence) | Morningglory plant response rating ([8]; Rate 125 g/ha, Postemergence) | Plant response rating, Morningglory ([8]; Rate 250 g/ha, Postemergence) | Plant response rating, Soybean (soybean (Glycine max); Rate 62 g/ha, Postemergence) | Soybean plant response rating (soybean (Glycine max); Rate 125 g/ha, Postemergence) | Plant response rating, Sugarbeets ([12]; Rate 62 g/ha, Postemergence) | Plant response rating, Rape (rape (Brassica napus); Rate 62 g/ha, Postemergence)
5: Plant response rating, Soybean (soybean (Glycine max); Rate 250 g/ha, Postemergence)
8: Sugarbeets plant response rating ([12]; Rate 125 g/ha, Postemergence) | Plant response rating, Sugarbeets ([12]; Rate 250 g/ha, Postemergence) | Plant response rating, Redroot pigweed ([14]; Rate 250 g/ha, Postemergence)
6: Plant response rating, Bedstraw ([4]; Rate 250 g/ha, Postemergence) | Plant response rating, Redroot pigweed ([14]; Rate 62 g/ha, Postemergence) | Redroot pigweed plant response rating ([14]; Rate 125 g/ha, Postemergence) | Rape plant response rating (rape (Brassica napus); Rate 125 g/ha, Postemergence) | Plant response rating, Rape (rape (Brassica napus); Rate 250 g/ha, Postemergence)
2: Plant response rating, S. Flatsedge [1, 18] | Plant response rating, Barnyardgrass [3, 18] | Plant response rating, Cocklebur ([5]; Rate 62 g/ha, Postemergence) | Plant response rating, Cocklebur ([5]; Rate 125 g/ha, Postemergence) | Plant response rating, Velvetleaf ([7]; Rate 250 g/ha, Postemergence) | Plant response rating, B. signalgrass ([15]; Rate 250 g/ha, Postemergence)
